Results as given in patent publication US20260242768A1, “ACETYL-COENZYME A CARBOXYLASE MUTANTS” (CIBUS US LLC, priority 2023, published 2026).

Assays:
rice Oryza sativa = experiment: Regenerated edited rice shoots established in soil, greenhouse: plant growth, herbicide tolerance, fertility (Example 9); type: in vivo
From the text: The D2078G mutation was introduced into a native rice Oryza sativa ACCase gene utilizing PEG delivery of CRISPR-Cas and GRONs into protoplasts. Examples of target spacer sequences for sgRNA targeting the rice ACCase gene are shown, but not limited to, those listed in the below Table 9. Sequence information for exemplary GRONs is shown, but not limited to those listed in the below Table 10. Rice protoplasts were isolated from cell suspension cultures initiated from Cypress mature seed-derived embryogenic calli. A non-coding D2078G GRON with RNP (CRISPR-Cas9 protein plus gRNA complex) was introduced into rice protoplasts using PEG-mediated delivery method. Following PEG treatment, protoplasts were cultured in liquid medium and kept stationary in the dark at 26±2° C. for 2 weeks. After 2 weeks, culture plates were gently scraped to release the divided protoplasts from the bottom of the plates and added equal volume of fresh liquid medium. These cultures were transferred on a rotatory shaker and incubated in the dark at 26±2° C. […]
(§1) The results of herbicide rate tolerance field trials of the D2078G/P2083T line can be seen below in Table 11. The edited plants were sprayed with clethodim, and plant injury was visually scored at (7) seven, (14) fourteen, and (28) days after application of the herbicide (“DAA”) on a 0-100% percentage scale for chlorosis of newest leaf-tips and growing points.

O. sativa ACCase = experiment: Growth of Saccharomyces cerevisiae pseudodiploid acc1Δ strains carrying wild-type or mutant OsACCase plasmids, streaked onto plates with increasing concentrations of clethodim (Examples 5, 7, 10; Tables 8, 12); type: cell-based, Oryza sativa; design: key to growth, 0 mM clethodim / growth, 0.025 mM clethodim / growth, 0.1 mM clethodim / growth, 0.25 mM clethodim / growth, 0.5 mM clethodim / growth, 1 mM clethodim: ++ = Strong growth; + = Poor growth; − = No growth; key to relative growth phenotype, 0.5 mM clethodim / relative growth phenotype, 1 mM clethodim / relative growth phenotype, 2 mM clethodim / relative growth phenotype, highGal / relative growth phenotype, lowGal / relative growth phenotype, 0.05 mM clethodim / relative growth phenotype, 0.1 mM clethodim / relative growth phenotype, 0.25 mM clethodim: +++ high growth; ++ moderate growth; + low to negligible growth; (−) some cell debris, no growth; − no growth or cell debris; settings: for growth, 0 mM clethodim / growth, 0.025 mM clethodim / growth, 0.1 mM clethodim / growth, 0.25 mM clethodim / growth, 0.5 mM clethodim / growth, 1 mM clethodim: Table 12; for growth, 0 mM clethodim: plate with 0 mM clethodim; for growth, 0 mM clethodim / growth, 0.025 mM clethodim / growth, 0.1 mM clethodim / growth, 0.25 mM clethodim / growth, 0.5 mM clethodim / growth, 1 mM clethodim / relative growth phenotype, 0.05 mM clethodim / relative growth phenotype, 0.1 mM clethodim / relative growth phenotype, 0.25 mM clethodim / relative growth phenotype, 0.5 mM clethodim / relative growth phenotype, 1 mM clethodim / relative growth phenotype, 2 mM clethodim: galactose 0.01%; for growth, 0.025 mM clethodim: plate with 0.025 mM clethodim; for growth, 0.1 mM clethodim / relative growth phenotype, 0.1 mM clethodim: plate with 0.1 mM clethodim; for growth, 0.25 mM clethodim / relative growth phenotype, 0.25 mM clethodim: plate with 0.25 mM clethodim; for growth, 0.5 mM clethodim / relative growth phenotype, 0.5 mM clethodim: plate with 0.5 mM clethodim; for growth, 1 mM clethodim / relative growth phenotype, 1 mM clethodim: plate with 1 mM clethodim; for clethodim tolerance compared to the wild-type (wt) control strain: Example 5; for relative growth phenotype, 0.05 mM clethodim: plate with 0.05 mM clethodim; for relative growth phenotype, 2 mM clethodim: plate with 2 mM clethodim; for relative growth phenotype, highGal / relative growth phenotype, lowGal: yeast acc1Δ strain with OsACCase plasmid, no clethodim; for relative growth phenotype, highGal: high galactose plate; for relative growth phenotype, lowGal: low galactose plate
From the text: Mutations at position N2097S and V2098A were combined to determine if point mutations at both positions gave increased resistance compared to either single point mutation. Each of these respective mutations (N2097S, V2098A and N2097S/V2098A) were generated by standard methods and introduced into a Saccharomyces cerevisiae pseudodiploid acc1Δ strain with a plasmid containing wild-type O. sativa ACCase gene. Once each of these mutations were introduced by recombination mediated mutagenesis, the OsACCase wild-type plasmid was removed, and mutation strains were confirmed by sequencing. The three strains, along with a series of controls including a WT strain (negative control), an I1781L mutant strain, and a D2078G mutant strain (positive control), were streaked onto plates with increasing concentrations of clethodim. […] These observations argue that N2097S is an enhancer of V2098A tolerance.
Edits at position S1784N and A1785G were combined to determine if point mutations at both of these two positions gave increased resistance compared to either single point mutation. Each of these respective mutations (S1784N, A1785G and S1784N/A1785G) were generated by standard methods and introduced into a Saccharomyces cerevisiae pseudodiploid acc1Δ strain with a plasmid containing wild-type O. sativa ACCase gene. Once each of these mutations were introduced by recombination mediated mutagenesis, the OsACCase wild-type plasmid was removed, and mutation strains were confirmed by sequencing. The three strains, along with a series of controls including a WT strain (negative control), an I1781L mutant strain, a D2078G mutant strain (positive control), and a V2075L mutant strain were streaked onto plates with increasing concentrations of clethodim.
Each of these respective mutations (D2078G, P2083T, D2078G/P2083T) were generated by standard methods and introduced into a Saccharomyces cerevisiae pseudodiploid acc14 strain with a plasmid containing the wild-type O. sativa ACCase gene. Once plasmids bearing each of these mutations, introduced using recombination-mediated mutagenesis, the OsACCase wild-type plasmid was removed, and strains bearing each mutant plasmid were confirmed by sequencing. The three strains, along with a series of controls including a wild-type strain (negative control), an I1781L mutant strain (medium control), and a pre-existing D2078G mutant strain (positive control) were streaked onto plates with increasing concentrations of clethodim.

D2078G/P2083T line = type: in vivo, Oryza sativa; settings: sprayed with clethodim
From the text: as §1

[1] = test system: D2078G/P2083T edited rice line; type: in vivo, Oryza sativa; settings: all clethodim spray rates, nine environments
From the text: The clethodim herbicide chosen contained 2.0 pounds active ingredient per gallon. Using a randomized completed block design with three replicates, four clethodim spray rates (5.76, 8.30, 12.10 and 16.00 fluid ounces per acre) were compared to an untreated control (“UTC”). Phytotoxicity rates to access crop response were visually scored (7) seven, (14) fourteen and (28) twenty-eight days after clethodim application (“DAA”) using a 0-100% percentage chlorosis scale. All plots were maintained weed free using additional herbicides tolerant by all rice lines. Yield was collected using a research plot combine to harvest the small plot, and yields were standardized to 12.5% moisture before being converted to a percentage of the untreated control.

[2] = test system: rice (Oryza sativa) plastidal ACCase; experiment: Clethodim tolerance of rice ACCase mutations, yeast complementation assay (Examples 1-3); type: cell-based; settings: for clethodim tolerance: ACCase mutation tested with the herbicide clethodim
From the text: Joachimiak M. et al Proc Natl Acad Sci U.S.A. 1997 Sep. 2; 94 (18): 9990-5 and WO/2013/074524 and WO/2013/074524 each describe methods to complement a yeast (Saccharomyces cerevisiae) strain lacking the native acc1 gene with either a wt or mutated form of a chimeric plastidal ACCase gene from a plant such as rice (Oryza sativa). Methods to introduce one or more mutations listed herein into the chimeric ACCase gene and subsequently complement the acc1 lacking yeast strain are well known by an individual skilled in the art. In the art assays are known for measuring tolerance of a mutated plant ACCase gene versus a herbicide that is a member of the aryloxyphenoxypropanoate, cyclohexanedione, and/or phenylpyrazoline families of herbicides such as clethodim, sethoxydim, fluazifop, haloxyfop, quizalofop, and pinoxaden (Joachimiak M. et al Proc Natl Acad Sci U.S.A. 1997 Sep. 2; 94 (18): 9990-5 and WO/2013/074524).
A library of random mutations in the rice (Oryza sativa) plastidal ACCase gene was generated and screened for clethodim tolerant clones using a yeast complementation assay.

[3] = Cha et al., Pesticide Biochemistry and Physiology 111 (2014) 7-13; cited from earlier work
[4] = plates with increasing clethodim, 0.01% galactose
[5] = Example 10, highest concentration tested 1 mM, 0.01% galactose

Substance | growth, 0 mM clethodim (O. sativa ACCase) | growth, 0.025 mM clethodim (O. sativa ACCase) | growth, 0.1 mM clethodim (O. sativa ACCase) | growth, 0.25 mM clethodim (O. sativa ACCase) | growth, 0.5 mM clethodim (O. sativa ACCase) | growth, 1 mM clethodim (O. sativa ACCase) | relative growth phenotype, 0.05 mM clethodim (O. sativa ACCase) | relative growth phenotype, 0.1 mM clethodim (O. sativa ACCase) | relative growth phenotype, 0.25 mM clethodim (O. sativa ACCase) | relative growth phenotype, 0.5 mM clethodim (O. sativa ACCase) | relative growth phenotype, 1 mM clethodim (O. sativa ACCase) | relative growth phenotype, 2 mM clethodim (O. sativa ACCase) | relative growth phenotype, highGal (O. sativa ACCase) | relative growth phenotype, lowGal (O. sativa ACCase) | herbicide tolerance (rice Oryza sativa) | clethodim tolerance [2] | clethodim tolerance compared to the wild-type (wt) control strain (O. sativa ACCase; [4]) | also measured
D2078G/P2083T: double mutant ACCase; yeast strain and edited rice line | ++ | ++ | ++ | ++ | ++ | + |  |  |  |  |  |  |  |  | herbicide tolerance |  |  | meristem necrosis (D2078G/P2083T line): limited meristem necrosis except at the highest rates of herbicide application; yield (D2078G/P2083T line; compared to the untreated control plants): increased yield; plant injury (D2078G/P2083T line; visually scored 7, 14, 28 DAA): low plant injury; plant injury [1]: low plant injury; yield [1]: good yield
N2097D: mutated ACCase, numbering per SEQ ID NO: 2 |  |  |  |  |  |  |  |  |  |  |  |  |  |  |  | neither the N2097S nor the N2097D single mutations provide detectable clethodim tolerance |  | effect on clethodim tolerance when combined with D2078G, V2075L or V2098A ([2]; combined with either D2078G, V2075L or V2098A): produces opposing results; tolerance to the fluazifop herbicide [3]: associated with tolerance to the fluazifop herbicide

The next lines start with results.

growth, 0 mM clethodim (O. sativa ACCase) | growth, 0.025 mM clethodim (O. sativa ACCase) | growth, 0.1 mM clethodim (O. sativa ACCase) | growth, 0.25 mM clethodim (O. sativa ACCase) | growth, 0.5 mM clethodim (O. sativa ACCase) | growth, 1 mM clethodim (O. sativa ACCase) | relative growth phenotype, 0.05 mM clethodim (O. sativa ACCase) | relative growth phenotype, 0.1 mM clethodim (O. sativa ACCase) | relative growth phenotype, 0.25 mM clethodim (O. sativa ACCase) | relative growth phenotype, 0.5 mM clethodim (O. sativa ACCase) | relative growth phenotype, 1 mM clethodim (O. sativa ACCase) | relative growth phenotype, 2 mM clethodim (O. sativa ACCase) | relative growth phenotype, highGal (O. sativa ACCase) | relative growth phenotype, lowGal (O. sativa ACCase) | Substance | herbicide tolerance (rice Oryza sativa) | clethodim tolerance [2] | clethodim tolerance compared to the wild-type (wt) control strain (O. sativa ACCase; [4]) | also measured
++ | ++ | ++ | ++ | ++ | + | +++ | +++ | +++ | +++ | + | (−) | +++ | +++ | D2078G: mutated ACCase, numbering per SEQ ID NO: 2; positive control strain; also edited rice shoots | strong herbicide tolerance | measurable clethodim tolerance | did produce tolerance | clethodim concentrations on which the strain grew (O. sativa ACCase; Example 7, plates with increasing clethodim, 0.01% galactose): up to 1.0 mM
++ | ++ | ++ | + | − | − | +++ | +++ | ++ | (−) | (−) | (−) | +++ | +++ | I1781L: mutated ACCase, numbering per SEQ ID NO: 2; moderate-resistance control |  | produces tolerance | did produce tolerance | clethodim concentrations on which the strain grew poorly (O. sativa ACCase; [5]): up to 0.25 mM; clethodim concentrations on which the strain grew well (O. sativa ACCase; [5]): up to 0.1 mM; growth on clethodim plates (in words) (O. sativa ACCase; [4]): consistent with moderate resistance
 |  |  |  |  |  | (−) | (−) | − | − | − | − | +++ | +++ | A1785G: mutated ACCase, numbering per SEQ ID NO: 2 |  | no detectable clethodim tolerance |  | 
